# Reference: patent US6759420B1, “Arylalkanoyl derivatives, processes for their preparation, their use and pharmaceutical compositions containing them” (Aventis Pharma Deutschland GmbH, priority 1999, dated 2004)
# Structures can show the parent of a compound that is named as a salt.
# Target: factor Xa (Homo sapiens, UniProt P00742)
# Experiment: Factor Xa assay (Test 1a), chromogenic
# Type: biochemical
# Set-up: purchased Enzyme Research Laboratories, Inc; South Bend, Ind
# Conditions: in vitro factor Xa assay Test 1a; human factor Xa 0.5 nM, substrate S-2765 140 μM, 25° C.; Ki from IC50 corrected for substrate competition
# Excerpt: The ability of a compound of formula (I) to inhibit factor Xa, thrombin, plasmin, elastase, and trypsin may be assessed by determining the concentration of compound of formula (I) that inhibits enzyme activity by 50% (IC50). Purified enzymes are used in chromogenic assays. To determine the inhibition constant, the IC50 value is corrected for competition with substrate using the formula:
# Ki=IC50×(1/{1+((substrate concentration)/substrate Km)})
# where Km is the Michaelis-Menten constant. Y. -C. Chen and W. H. Prusoff, Biochem. Pharmacol. 22: […] (1973), which is incorporated herein by reference.
# TBS-PEG buffer (50 mM Tris-Cl, pH 7.8, 200 mM NaCl, 0.05% (w/v) PEG-8000, 0.02% (w/v) NaN3) is used for this assay. The IC50 is determined by combining in appropriate wells of a Costar half-area microtiter plate 25 μl human factor Xa (Enzyme Research Laboratories, Inc.; South Bend, Ind.) in TBS-PEG; 40 μl 10% (v/v) DMSO in TBS-PEG (uninhibited control) or various concentrations of the compound to be tested diluted in 10% (v/v) DMSO in TBS-PEG; and substrate S-2765 (N-benzyloxycarbonyl-D-Arg-Gly-L-Arg-p-nitroanilide; Kabi Pharmacia, Inc.; Franklin Ohio) in TBS-PEG.
# The assays are performed by pre-incubating the compound of formula (I) plus enzyme for 10 min, then the assay is initiated by adding substrate to obtain a final volume of 100 μl. The initial velocity of chromogenic substrate hydrolysis is measured by the change in absorbance at 405 nm using a Bio-tek Instruments kinetic plate reader (Ceres UV900HDi) at 25° C. during the linear portion of the time course (usually 1.5 min after addition of substrate). The concentration of inhibitor that causes a 50% decrease in the rate of substrate hydrolysis is predicted by linear regression after plotting the relative rates of hydrolysis (compared to the uninhibited control) versus the log of the compound of formula (I) concentration. The enzyme concentration is 0.5 nM and substrate concentration is 140 μM.
# Sequence of factor Xa (P00742 235-488 limits assumed): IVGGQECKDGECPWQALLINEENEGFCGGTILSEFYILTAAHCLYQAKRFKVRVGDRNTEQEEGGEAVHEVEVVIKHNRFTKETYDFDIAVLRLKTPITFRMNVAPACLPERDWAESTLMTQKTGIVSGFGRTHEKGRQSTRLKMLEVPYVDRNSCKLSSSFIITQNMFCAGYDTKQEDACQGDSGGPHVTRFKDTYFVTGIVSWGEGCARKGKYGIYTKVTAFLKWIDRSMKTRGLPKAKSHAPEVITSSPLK
# Sequence of factor Xa (P00742 41-179 limits assumed): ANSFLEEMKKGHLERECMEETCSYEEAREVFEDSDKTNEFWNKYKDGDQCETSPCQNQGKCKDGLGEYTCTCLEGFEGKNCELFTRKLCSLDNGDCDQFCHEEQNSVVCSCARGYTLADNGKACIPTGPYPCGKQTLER
row,Structure (SMILES),Ki [nM]
1,"Cc1ccc(C(Cc2ccc(C(=N)N)cc2)C(=O)N[C@H](C(=O)N[C@@H](CCCNC(=N)N)C(N)=O)C2CCCCC2)cc1 (mixture of isomers) [Example 141, 2-(S)-{2-(S)-[3-(4-Carbamimidoyl-phenyl)-2-(R,S)-p-tolyl-propionylamino]-2-cyclohexyl-acetylamino}-5-guanidino-pentanoic acid amide hydrochloric acid salt]",100
2,"N=C(N)c1ccc(CNC(=O)[C@@H](NC(=O)C(Cc2ccc(C(=N)N)cc2)c2cccc(Cl)c2)C2CCCCC2)cc1 (mixture of isomers) [Example 157, N-[(S)-(4-Carbamimidoyl-benzylcarbamoyl)-cyclohexyl-methyl]-3-(4-carbamimidoyl-phenyl)-2-(R,S)-(3-chloro-phenyl)-propionamide hydrochloric acid salt]",19
3,"CC(C)OC(=O)[C@H](CCCNC(=N)N)NC(=O)[C@@H](NC(=O)C(Cc1ccc(C(=N)N)cc1)C1CCCCC1)C1CCCCC1 (mixture of isomers) [Example 181, 2-(S)-{2-[3-(4-Carbamimidoyl-phenyl)-2-(R,S)-cyclohexyl-propionylamino]-2-(S)-cyclohexyl-acetylamino}-5-guanidino-pentanoic acid isopropyl ester hydrochloric acid salt]",13
4,"N=C(N)NCCC[C@H](NC(=O)[C@@H](NC(=O)C(Cc1ccc(C(=N)N)cc1)C1CCCCC1)C1CCCCC1)C(=O)NCCc1ccccc1 (mixture of isomers) [Example 184, 2-(S)-{2-(R,S)-[3-(4-Carbamimidoyl-phenyl)-2-cyclohexyl-propionylamino]-2-(S)-cyclohexyl-acetylamino}-5-guanidino-pentanoic acid phenethyl-amide trifluoroacetic acid salt]",19
5,"N=C(N)c1ccc(CNC(=O)[C@@H](NC(=O)C(Cc2ccc(C(=N)N)cc2)c2ccc3ccccc3c2)C2CCCCC2)cc1 (mixture of isomers) [Example 228, N-[(S)-(4-Carbamimidoyl-benzylcarbamoyl)-cyclohexyl-methyl]-3-(4-carbamimidoyl-phenyl)-2-(R,S)-naphthalen-2-yl-propionamide hydrochloric acid salt]",3
6,"N=C(N)NCCCC(NC(=O)C(NC(=O)C(Cc1ccc(C(=N)N)cc1)C1CCCCC1)C1CCCCC1)C(N)=O (single isomer, unassigned) [Example 110]",2
7,"N=C(N)NCCCC(NC(=O)C(NC(=O)C(Cc1ccc(C(=N)N)cc1)C1CCCCC1)C1CCCCC1)C(N)=O (single isomer, unassigned; less polar) [Example 4]",2
8,"CCOC(=O)C(CCCNC(=N)N)NC(=O)C(NC(=O)C(Cc1ccc(C(=N)N)cc1)C1CCCCC1)C1CCCCC1 (single isomer, unassigned; less polar) [Example 5]",5
9,"N=C(N)NCCCC(NC(=O)C(NC(=O)C(Cc1ccc(C(=N)N)cc1)C1CCCCC1)C1CCCCC1)C(=O)O (single isomer, unassigned; less polar) [Example 6]",5
10,"N=C(N)c1ccc(CC(C(=O)NC(C(=O)NCCN2C(=O)CNC2=O)C2CCCCC2)C2CCCCC2)cc1 (single isomer, unassigned; less polar) [Example 7]",7650
11,"C[n+]1ccc(CNC(=O)[C@@H](NC(=O)C(Cc2ccc(C(=N)N)cc2)c2ccccc2)C2CCCCC2)cc1 (single isomer, unassigned; less polar) [Example 86]",600
12,"N=C(N)c1ccc(CNC(=O)C(NC(=O)C(Cc2ccc(C(=N)N)cc2)C2CCCCC2)C2CCCCC2)cc1 (single isomer, unassigned; less polar) [Example 111]",59
13,"N=C(N)c1ccc(CC(C(=O)NC(C(=O)NCC2CCN(C(=N)N)CC2)C2CCCCC2)C2CCCCC2)cc1 (single isomer, unassigned; less polar) [Example 113]",6
14,"N=C(N)NCCCC(NC(=O)C(NC(=O)C(Cc1ccc(C(=N)N)cc1)c1ccc(Br)cc1)C1CCCCC1)C(N)=O (single isomer, unassigned; less polar) [Example 119]",11
15,"N=C(N)NCCCC(NC(=O)C(NC(=O)C(Cc1ccc(C(=N)N)cc1)c1cccc(Cl)c1)C1CCCCC1)C(N)=O (single isomer, unassigned; less polar) [Example 124]",1
16,"N=C(N)NCCCC(NC(=O)C(NC(=O)C(Cc1ccc(C(=N)N)cc1)c1cccc(F)c1)C1CCCCC1)C(N)=O (single isomer, unassigned; less polar) [Example 131]",5
17,"N=C(N)NCCCC(NC(=O)C(NC(=O)C(Cc1ccc(C(=N)N)cc1)c1cccc(Br)c1)C1CCCCC1)C(N)=O (single isomer, unassigned; less polar) [Example 133]",1
18,"CC(=N)N1CCC(CNC(=O)C(NC(=O)C(Cc2ccc(C(=N)N)cc2)C2CCCCC2)C2CCCCC2)CC1 (single isomer, unassigned; less polar) [Example 137]",4

row,Structure (SMILES),Ki [nM]
1,"N=C(N)c1ccc(CNC(=O)C(NC(=O)C(Cc2ccc(C(=N)N)cc2)c2cccc(F)c2)C2CCCCC2)cc1 (single isomer, unassigned; less polar) [Example 149]",23
2,"N=C(N)c1ccc(CNC(=O)C(NC(=O)C(Cc2ccc(C(=N)N)cc2)c2cccc(Br)c2)C2CCCCC2)cc1 (single isomer, unassigned; less polar) [Example 151]",4
3,"Cc1ccc(C(Cc2ccc(C(=N)N)cc2)C(=O)NC(C(=O)NCc2ccc(C(=N)N)cc2)C2CCCCC2)cc1 (single isomer, unassigned; less polar) [Example 154]",310
4,"Cc1cccc(C(Cc2ccc(C(=N)N)cc2)C(=O)NC(C(=O)NCC2CCN(C(=N)N)CC2)C2CCCCC2)c1 (single isomer, unassigned; less polar) [Example 159]",11
5,"N=C(N)c1ccc(CC(C(=O)NC(C(=O)NCC2CCN(C(=N)N)CC2)C2CCCCC2)c2cccc(F)c2)cc1 (single isomer, unassigned; less polar) [Example 161]",8
6,"Cc1ccccc1C(Cc1ccc(C(=N)N)cc1)C(=O)NC(C(=O)NCC1CCN(C(=N)N)CC1)C1CCCCC1 (single isomer, unassigned; less polar) [Example 163]",1
7,"N=C(N)c1ccc(CC(C(=O)NC(C(=O)NCC2CCN(C(=N)N)CC2)C2CCCCC2)c2cccc(Br)c2)cc1 (single isomer, unassigned; less polar) [Example 165]",2
8,"Cc1cccc(C(Cc2ccc(N)cc2)C(=O)NC(C(=O)NCC2CCN(C(=N)N)CC2)C2CCCCC2)c1 (single isomer, unassigned; less polar) [Example 167]",74
9,"N=C(N)c1ccc(CC(C(=O)NC(C(=O)NCC2CCN(C(=N)N)CC2)C2CCCCC2)c2ccc3ccccc3c2)cc1 (single isomer, unassigned; less polar) [Example 170]",33
10,"Cc1ccc(C(Cc2ccc(C(=N)N)cc2)C(=O)NC(C(=O)NCC2CCN(C(=N)N)CC2)C2CCCCC2)cc1 (single isomer, unassigned; less polar) [Example 172]",72
11,"N=C(N)c1ccc(CC(C(=O)NC(C(=O)NCC2CCN(C(=N)N)CC2)C2CCCCC2)c2cccc(Cl)c2)cc1 (single isomer, unassigned; less polar) [Example 176]",1
12,"N=C(N)c1ccc(CC(C(=O)NC(C(=O)NCC2CCN(C(=N)N)CC2)C2CCCCC2)c2ccc(Br)cc2)cc1 (single isomer, unassigned; less polar) [Example 177]",1
13,"CN(Cc1ccccc1)C(=O)[C@H](CCCNC(=N)N)NC(=O)C(NC(=O)C(Cc1ccc(C(=N)N)cc1)C1CCCCC1)C1CCCCC1 (single isomer, unassigned; less polar) [Example 183]",25
14,"CCCCOC(=O)[C@H](CCCNC(=N)N)NC(=O)[C@@H](NC(=O)C(Cc1ccc(C(=N)N)cc1)C1CCCCC1)C1CCCCC1 (single isomer, unassigned; less polar) [Example 188]",22
15,"CCCOC(=O)C(CCCNC(=N)N)NC(=O)C(NC(=O)C(Cc1ccc(C(=N)N)cc1)C1CCCCC1)C1CCCCC1 (single isomer, unassigned; less polar) [Example 189]",20
16,"N=C(N)c1ccc(CC(C(=O)N[C@H](C(=O)NCC2CCN(C(=N)N)CC2)C2CCCCC2)c2ccc(Cl)cc2)cc1 (single isomer, unassigned; less polar) [Example 216]",19
17,"N=C(N)c1ccc(CC(C(=O)N[C@H](C(=O)NCC2CCC(C(=N)N)CC2)C2CCCCC2)c2cccc(Br)c2)cc1 (single isomer, unassigned; less polar) [Example 219]",5
